Where two headings read alike, the source gives them in different places.
Key:
Type in all cases: in vivo
[1] = system: morningglory (Ipomoea coccinea); assay: Test C pre-/postemergence: morningglory
In short: (§1)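 Preemergence on seeds in loam/sand, postemergence on 2–18 cm (1–4-leaf) plants in peat-based medium; compounds in non-phytotoxic solvent with surfactant. After 13–15 days in greenhouse, visual rating versus controls, 0 (no effect) to 100 (complete control).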

[2] = system: pigweed (Amaranthus retroflexus); assay: Test A pre-/postemergence: pigweed; conditions: Amaranthus retroflexus, 240 h; for pest or weed control at 125 g/ha: 125 g ai/ha; for pest or weed control at 500 g/ha: 500 g ai/ha
In short: (§2)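 Soil medium was loam blended with sand; treatments pre- and postemergence were applied concurrently, postemergence at one- to two-leaf stage. Approximately ten days in greenhouse preceded visual comparison with untreated controls, scored 0 (no effect) to 100 (complete control).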

[3] = system: large crabgrass (Digitaria sanguinalis); assay: Test C pre-/postemergence: large crabgrass
In short: as §1

[4] = system: ragweed (common ragweed, Ambrosia elation); assay: Test C pre-/postemergence: ragweed
In short: as §1

[5] = system: wild oat (Avena fatua); assay: Test C pre-/postemergence: wild oat
In short: as §1

[6] = system: corn (Zea mays); assay: Test C pre-/postemergence: corn
In short: as §1

[7] = system: chickweed (common chickweed, Stellaria media); assay: Test C postemergence: chickweed
In short: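 Crop and weed plants were grown in peat-vermiculite medium and treated postemergence at the 1- to 4-leaf stage (2-18 cm tall). After 13-15 days in a greenhouse, each species was rated visually against untreated controls on a 0-100 scale (0 no effect, 100 complete control).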

[8] = system: ryegrass, Italian (Italian ryegrass, Lolium multiflorum); assay: Test C pre-/postemergence: ryegrass, Italian
In short: as §1

[9] = system: morningglory (Ipomoea spp.); assay: Test A pre-/postemergence: morningglory; conditions: Ipomoea, 240 h; for pest or weed control at 125 g/ha: 125 g ai/ha; for pest or weed control at 500 g/ha: 500 g ai/ha
In short: as §2

[10] = system: wheat (Triticum aestivum); assay: Test A pre-/postemergence: wheat; conditions: Triticum aestivum, 240 h; for plant injury at 125 g/ha: 125 g ai/ha; for plant injury at 500 g/ha: 500 g ai/ha
In short: as §2

[11] = system: johnsongrass (Sorghum halepense); assay: Test C pre-/postemergence: johnsongrass
In short: as §1

[12] = system: corn (Zea mays); assay: Test A pre-/postemergence: corn; conditions: Zea mays, 240 h
In short: as §2

[13] = Postemergence, 31 g ai/ha, scale 0 to 100 (0 no effect, 100 complete control)
[14] = Postemergence, 62 g ai/ha, scale 0 to 100 (0 no effect, 100 complete control)
[15] = Postemergence, 125 g ai/ha, scale 0 to 100, 0 no effect, 100 complete control
[16] = Postemergence, 250 g ai/ha, scale 0 to 100
[17] = Preemergence, 31 g ai/ha, scale of 0 to 100, 0 is no effect, 100 is complete control
[18] = Preemergence, 62 g ai/ha, scale of 0 to 100, 0 is no effect, 100 is complete control
[19] = Preemergence, 125 g ai/ha, scale 0 to 100, 0 no effect, 100 complete control
[20] = Preemergence, 250 g ai/ha, scale 0 to 100, 0 no effect, 100 complete control

Q: Which results are given for `Cc1nn(-c2ccc(F)cc2)nc1Oc1ccnc(C(F)(F)F)c1` [Compound 129, 4-[[2-(4-fluorophenyl)-5-methyl-2H-1,2,3-triazol-4-yl]oxy]-2-(trifluoromethyl)pyridine]?
A: Plant response rating, Morningglory [1, 13]: 50; Plant response rating, Morningglory [1, 14]: 55; Plant response rating, Morningglory [1, 15]: 65; Plant response rating, Morningglory [1, 16]: 75; Plant response rating, Morningglory [1, 17]: 0; Plant response rating, Morningglory [1, 18]: 20; Plant response rating, Morningglory [1, 19]: 60; Plant response rating, Morningglory [1, 20]: 65; pest or weed control at 125 g/ha ([2]; post-emergence, Postemergence, 0 to 100 scale, 0 is no effect, 100 is complete control, read-out: Pigweed plant response rating): 100%; pest or weed control at 500 g/ha ([2]; post-emergence, Postemergence, visual rating on 0 to 100 scale (0 no effect, 100 complete control), approximately ten days, read-out: Pigweed plant response rating): 100%; pest or weed control at 125 g/ha ([2]; pre-emergence, Preemergence, 0 to 100 scale where 0 is no effect and 100 is complete control, read-out: Plant response rating, Pigweed): 100%; pest or weed control at 500 g/ha ([2]; pre-emergence, Preemergence, 0 to 100 scale (0 no effect, 100 complete control), read-out: Plant response rating, Pigweed): 100%; Plant response rating, Crabgrass, Large [3, 13]: 20; Plant response rating, Crabgrass, Large [3, 14]: 45; Plant response rating, Crabgrass, Large [3, 15]: 65; Plant response rating, Crabgrass, Large [3, 16]: 85; Plant response rating, Crabgrass, Large [3, 17]: 98; Plant response rating, Crabgrass, Large [3, 18]: 100; Plant response rating, Crabgrass, Large [3, 19]: 100; Plant response rating, Crabgrass, Large [3, 20]: 100; Plant response rating, Ragweed [4, 13]: 40; Plant response rating, Ragweed [4, 14]: 40; Plant response rating, Ragweed [4, 15]: 45; Plant response rating, Ragweed [4, 16]: 45; Plant response rating, Ragweed [4, 17]: 0; Plant response rating, Ragweed [4, 18]: 0; Plant response rating, Ragweed [4, 19]: 0; Plant response rating, Ragweed [4, 20]: 55; Plant response rating, Oat, Wild [5, 13]: 20; Plant response rating, Oat, Wild [5, 14]: 35; Plant response rating, Oat, Wild [5, 15]: 50; Plant response rating, Oat, Wild [5, 16]: 80; Plant response rating, Oat, Wild [5, 17]: 40; Plant response rating, Oat, Wild [5, 18]: 85; Plant response rating, Oat, Wild [5, 19]: 95; Plant response rating, Oat, Wild [5, 20]: 95; Plant response rating, Corn [6, 13]: 10; Plant response rating, Corn [6, 14]: 15; Plant response rating, Corn [6, 15]: 40; Plant response rating, Corn [6, 16]: 65; Plant response rating, Corn [6, 17]: 0; Plant response rating, Corn ([6]; Preemergence, 62 g ai/ha, scale 0 to 100, 0 no effect, 100 complete control): 10; Plant response rating, Corn [6, 19]: 45; Plant response rating, Corn [6, 20]: 65; Plant response rating, Chickweed ([7]; 31 g ai/ha, scale 0 to 100 (0 no effect, 100 complete control)): 15; Plant response rating, Chickweed ([7]; 62 g ai/ha, scale 0 to 100 (0 no effect, 100 complete control)): 45; Plant response rating, Chickweed ([7]; 125 g ai/ha, scale 0 to 100, 0 no effect, 100 complete control): 80; Plant response rating, Chickweed ([7]; 250 g ai/ha, scale 0 to 100): 98; Plant response rating, Ryegrass, Italian [8, 13]: 5; Plant response rating, Ryegrass, Italian [8, 14]: 15; Plant response rating, Ryegrass, Italian [8, 15]: 30; Plant response rating, Ryegrass, Italian [8, 16]: 60; Plant response rating, Ryegrass, Italian [8, 17]: 60; Plant response rating, Ryegrass, Italian [8, 18]: 90; Plant response rating, Ryegrass, Italian [8, 19]: 90; Plant response rating, Ryegrass, Italian [8, 20]: 95; pest or weed control at 125 g/ha ([9]; post-emergence, Postemergence, 0 to 100 scale, 0 is no effect, 100 is complete control, read-out: Morningglory plant response rating): 100%; pest or weed control at 500 g/ha ([9]; post-emergence, Postemergence, visual rating on 0 to 100 scale (0 no effect, 100 complete control), approximately ten days, read-out: Morningglory plant response rating): 100%; pest or weed control at 125 g/ha ([9]; pre-emergence, Preemergence, 0 to 100 scale where 0 is no effect and 100 is complete control, read-out: Plant response rating, Morningglory): 50%; pest or weed control at 500 g/ha ([9]; pre-emergence, Preemergence, 0 to 100 scale (0 no effect, 100 complete control), read-out: Plant response rating, Morningglory): 60%; plant injury at 125 g/ha ([10]; post-emergence, Postemergence, 0 to 100 scale, 0 is no effect, 100 is complete control, read-out: Wheat plant response rating): 20%; plant injury at 500 g/ha ([10]; post-emergence, Postemergence, visual rating on 0 to 100 scale (0 no effect, 100 complete control), approximately ten days, read-out: Wheat plant response rating): 30%; plant injury at 125 g/ha ([10]; pre-emergence, Preemergence, 0 to 100 scale where 0 is no effect and 100 is complete control, read-out: Plant response rating, Wheat): 10%; plant injury at 500 g/ha ([10]; pre-emergence, Preemergence, 0 to 100 scale (0 no effect, 100 complete control), read-out: Plant response rating, Wheat): 50%; Plant response rating, Johnsongrass [11, 13]: 5; Plant response rating, Johnsongrass [11, 14]: 15; Plant response rating, Johnsongrass [11, 15]: 15; Plant response rating, Johnsongrass [11, 16]: 70; Plant response rating, Johnsongrass [11, 17]: 25; Plant response rating, Johnsongrass [11, 18]: 75; Plant response rating, Johnsongrass [11, 19]: 85; Plant response rating, Johnsongrass [11, 20]: 95; plant injury at 125 g/ha ([12]; post-emergence, Postemergence, 125 g ai/ha, 0 to 100 scale, 0 is no effect, 100 is complete control, read-out: Corn plant response rating): 30%; plant injury at 500 g/ha ([12]; post-emergence, Postemergence, 500 g ai/ha, visual rating on 0 to 100 scale (0 no effect, 100 complete control), approximately ten days, read-out: Corn plant response rating): 40%; Corn plant response rating (crop injury, 0 = no effect, 100 = complete kill) at 125 g/ha ([12]; pre-emergence, Preemergence, 125 g ai/ha, 0 to 100 scale where 0 is no effect and 100 is complete control): 50%; Corn plant response rating (crop injury, 0 = no effect, 100 = complete kill) at 500 g/ha ([12]; pre-emergence, Preemergence, 500 g ai/ha, 0 to 100 scale (0 no effect, 100 complete control)): 60%

— US9302999B2, “Substituted triazoles as herbicides” (E. I. DU PONT DE NEMOURS AND COMPANY, priority 2012, dated 2016)
